The structures appear in SMILES notation. Some results are limits rather than exact numbers.

One assay deals with PKCθ (Homo sapiens, UniProt Q04759). Description: Kinase profiling, single-dose in vitro kinase assay (Caliper Life Sciences). The following applies: read-out: Average % Inhibition PKCθ.
Another assay addresses RSK1 (Homo sapiens, UniProt Q15418). The assay is described as above. The following applies: read-out: Average % Inhibition RSK1.
For a further assay, the target named is FGFR1 (Homo sapiens, UniProt P11362). The description is as above. As to conditions: read-out: Average % Inhibition FGFR1.
Another assay deals with PDGFRα (Homo sapiens, UniProt P16234). Described as above. The following applies: read-out: Average % Inhibition PDGFRα.
Chain of PDGFRα (P16234 24-1089): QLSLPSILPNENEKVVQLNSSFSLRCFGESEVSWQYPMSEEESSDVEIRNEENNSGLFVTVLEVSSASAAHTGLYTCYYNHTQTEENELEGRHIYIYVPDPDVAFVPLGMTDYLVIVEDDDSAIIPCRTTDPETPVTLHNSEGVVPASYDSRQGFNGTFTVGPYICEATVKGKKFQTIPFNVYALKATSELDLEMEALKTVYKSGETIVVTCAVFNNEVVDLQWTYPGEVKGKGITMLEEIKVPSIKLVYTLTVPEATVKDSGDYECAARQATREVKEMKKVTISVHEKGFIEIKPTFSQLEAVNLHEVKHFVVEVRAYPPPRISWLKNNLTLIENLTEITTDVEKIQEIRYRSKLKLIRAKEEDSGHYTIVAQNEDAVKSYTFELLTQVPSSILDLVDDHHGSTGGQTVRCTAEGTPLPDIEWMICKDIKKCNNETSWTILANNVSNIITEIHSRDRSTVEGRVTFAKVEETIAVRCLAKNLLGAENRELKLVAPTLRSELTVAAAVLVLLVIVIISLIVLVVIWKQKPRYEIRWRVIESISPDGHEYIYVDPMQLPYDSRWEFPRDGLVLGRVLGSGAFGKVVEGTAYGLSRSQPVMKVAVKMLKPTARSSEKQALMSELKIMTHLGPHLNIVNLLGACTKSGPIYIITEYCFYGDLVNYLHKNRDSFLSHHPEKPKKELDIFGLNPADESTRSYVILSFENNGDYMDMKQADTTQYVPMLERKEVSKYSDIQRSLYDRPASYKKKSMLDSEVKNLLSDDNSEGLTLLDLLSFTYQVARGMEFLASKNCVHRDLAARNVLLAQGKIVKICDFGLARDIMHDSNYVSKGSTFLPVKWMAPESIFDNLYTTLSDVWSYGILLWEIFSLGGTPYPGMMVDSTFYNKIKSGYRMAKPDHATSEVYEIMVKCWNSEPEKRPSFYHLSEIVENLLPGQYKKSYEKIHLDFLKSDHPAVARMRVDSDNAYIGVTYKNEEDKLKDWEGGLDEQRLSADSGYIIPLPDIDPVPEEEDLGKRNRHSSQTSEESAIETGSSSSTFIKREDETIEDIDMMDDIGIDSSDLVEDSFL
In a further assay the target is JNK2 (Homo sapiens, UniProt P45984). Described as above. As to conditions: read-out: Average % Inhibition JNK2.
Chain of JNK2 (P45984 whole entry): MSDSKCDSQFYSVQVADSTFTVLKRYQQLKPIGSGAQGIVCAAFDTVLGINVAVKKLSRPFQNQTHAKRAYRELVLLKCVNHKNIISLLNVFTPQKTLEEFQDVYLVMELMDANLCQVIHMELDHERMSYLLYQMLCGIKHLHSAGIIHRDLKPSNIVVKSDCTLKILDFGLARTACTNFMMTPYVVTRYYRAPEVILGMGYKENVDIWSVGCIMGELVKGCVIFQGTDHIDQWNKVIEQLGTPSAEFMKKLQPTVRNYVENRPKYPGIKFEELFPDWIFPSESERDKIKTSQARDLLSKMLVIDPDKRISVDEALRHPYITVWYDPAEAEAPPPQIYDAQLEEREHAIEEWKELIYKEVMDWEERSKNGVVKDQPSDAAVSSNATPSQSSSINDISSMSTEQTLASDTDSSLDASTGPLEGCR
Another assay has as its target AKT2 (Homo sapiens, UniProt P31751). The description is as above. As to conditions: read-out: Average % Inhibition AKT2.
The target of the next assay is p70S6K (Homo sapiens, UniProt P23443). Described as above. The following applies: read-out: Average % Inhibition p70S6K.
Chain of p70S6K (P23443 whole entry): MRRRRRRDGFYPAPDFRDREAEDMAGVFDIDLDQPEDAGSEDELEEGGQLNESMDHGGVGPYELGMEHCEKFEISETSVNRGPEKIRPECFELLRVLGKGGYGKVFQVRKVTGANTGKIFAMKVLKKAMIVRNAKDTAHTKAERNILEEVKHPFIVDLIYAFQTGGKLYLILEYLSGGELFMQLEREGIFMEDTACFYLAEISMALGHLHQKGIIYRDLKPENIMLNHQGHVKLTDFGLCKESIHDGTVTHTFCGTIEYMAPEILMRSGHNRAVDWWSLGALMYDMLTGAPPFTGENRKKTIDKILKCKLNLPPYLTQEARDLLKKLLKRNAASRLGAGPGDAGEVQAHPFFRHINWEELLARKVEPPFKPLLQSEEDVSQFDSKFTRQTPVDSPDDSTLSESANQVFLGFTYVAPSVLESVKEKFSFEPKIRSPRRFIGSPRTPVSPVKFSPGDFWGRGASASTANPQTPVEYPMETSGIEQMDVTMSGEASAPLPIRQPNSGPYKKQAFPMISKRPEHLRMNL
The target in a further assay is AurA (Homo sapiens, UniProt O14965). Described as above. As to conditions: read-out: Average % Inhibition AurA.
In the next assay the target is IGF1R (Homo sapiens, UniProt P08069). The description is as above. The following applies: read-out: Average % Inhibition IGF1R.
A further assay relates to PLK1. On the set-up: method as in PMID 18829454. The following applies: previously reported; cited from earlier work.
For the next assay, the target named is Erk1 (Homo sapiens, UniProt P27361). In words: Kinase profiling, single-dose in vitro kinase assay (Caliper Life Sciences). As to conditions: read-out: Average % Inhibition Erk1, 10 μM.
The target of another assay is PKCζ (Homo sapiens, UniProt Q05513). Described as above. As to conditions: read-out: Average % Inhibition PKCζ.
Chain of PKCζ (Q05513 whole entry): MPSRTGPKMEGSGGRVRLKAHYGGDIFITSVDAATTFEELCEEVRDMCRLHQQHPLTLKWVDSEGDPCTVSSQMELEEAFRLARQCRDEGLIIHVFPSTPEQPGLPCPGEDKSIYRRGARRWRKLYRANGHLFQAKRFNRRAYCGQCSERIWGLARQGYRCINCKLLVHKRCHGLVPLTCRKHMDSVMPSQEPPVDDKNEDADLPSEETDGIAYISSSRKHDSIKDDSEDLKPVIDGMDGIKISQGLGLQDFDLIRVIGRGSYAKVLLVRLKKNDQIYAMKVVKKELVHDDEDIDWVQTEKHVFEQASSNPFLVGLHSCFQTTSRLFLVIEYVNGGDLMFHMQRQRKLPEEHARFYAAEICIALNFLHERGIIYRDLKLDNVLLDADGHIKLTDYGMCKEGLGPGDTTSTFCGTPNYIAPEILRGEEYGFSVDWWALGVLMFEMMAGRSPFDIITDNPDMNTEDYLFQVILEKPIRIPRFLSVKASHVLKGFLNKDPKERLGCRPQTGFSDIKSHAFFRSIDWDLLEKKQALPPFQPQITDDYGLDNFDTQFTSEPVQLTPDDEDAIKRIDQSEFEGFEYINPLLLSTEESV
The target of a further assay is MARK1 (Homo sapiens, UniProt Q9P0L2). Described as above. As to conditions: read-out: Average % Inhibition MARK1.
Chain of MARK1 (Q9P0L2 whole entry): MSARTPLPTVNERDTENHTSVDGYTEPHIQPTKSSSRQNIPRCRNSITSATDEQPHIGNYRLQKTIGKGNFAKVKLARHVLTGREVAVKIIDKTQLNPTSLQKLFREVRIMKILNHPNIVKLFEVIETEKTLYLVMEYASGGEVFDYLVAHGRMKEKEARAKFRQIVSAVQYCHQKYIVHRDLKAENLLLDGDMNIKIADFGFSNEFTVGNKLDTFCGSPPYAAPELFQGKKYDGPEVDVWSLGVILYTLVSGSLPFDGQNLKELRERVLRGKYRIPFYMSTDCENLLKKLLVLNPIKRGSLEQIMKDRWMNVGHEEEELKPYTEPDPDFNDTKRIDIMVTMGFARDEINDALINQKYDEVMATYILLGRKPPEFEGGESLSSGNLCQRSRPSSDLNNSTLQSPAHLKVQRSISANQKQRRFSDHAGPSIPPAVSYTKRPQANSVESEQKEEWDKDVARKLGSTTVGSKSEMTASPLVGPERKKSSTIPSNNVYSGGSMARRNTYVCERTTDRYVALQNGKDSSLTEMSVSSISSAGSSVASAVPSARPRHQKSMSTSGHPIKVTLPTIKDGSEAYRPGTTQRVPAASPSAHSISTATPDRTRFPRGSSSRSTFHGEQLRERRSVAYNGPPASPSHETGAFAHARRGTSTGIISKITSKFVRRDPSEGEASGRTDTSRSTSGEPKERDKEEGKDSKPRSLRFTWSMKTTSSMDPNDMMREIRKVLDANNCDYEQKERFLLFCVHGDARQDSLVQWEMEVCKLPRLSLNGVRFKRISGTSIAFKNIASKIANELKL
The target of a further assay is T1, CAMKIIα (Homo sapiens, UniProt Q9UQM7).
T1 construct: purchased Enzo Life Sciences
Further details: method as in PMID 18829454. The following applies: previously reported; cited from earlier work.

A further assay addresses T2, PKD2 (Homo sapiens, UniProt Q9BZL6).
T2 sequence (Q9BZL6 1-878): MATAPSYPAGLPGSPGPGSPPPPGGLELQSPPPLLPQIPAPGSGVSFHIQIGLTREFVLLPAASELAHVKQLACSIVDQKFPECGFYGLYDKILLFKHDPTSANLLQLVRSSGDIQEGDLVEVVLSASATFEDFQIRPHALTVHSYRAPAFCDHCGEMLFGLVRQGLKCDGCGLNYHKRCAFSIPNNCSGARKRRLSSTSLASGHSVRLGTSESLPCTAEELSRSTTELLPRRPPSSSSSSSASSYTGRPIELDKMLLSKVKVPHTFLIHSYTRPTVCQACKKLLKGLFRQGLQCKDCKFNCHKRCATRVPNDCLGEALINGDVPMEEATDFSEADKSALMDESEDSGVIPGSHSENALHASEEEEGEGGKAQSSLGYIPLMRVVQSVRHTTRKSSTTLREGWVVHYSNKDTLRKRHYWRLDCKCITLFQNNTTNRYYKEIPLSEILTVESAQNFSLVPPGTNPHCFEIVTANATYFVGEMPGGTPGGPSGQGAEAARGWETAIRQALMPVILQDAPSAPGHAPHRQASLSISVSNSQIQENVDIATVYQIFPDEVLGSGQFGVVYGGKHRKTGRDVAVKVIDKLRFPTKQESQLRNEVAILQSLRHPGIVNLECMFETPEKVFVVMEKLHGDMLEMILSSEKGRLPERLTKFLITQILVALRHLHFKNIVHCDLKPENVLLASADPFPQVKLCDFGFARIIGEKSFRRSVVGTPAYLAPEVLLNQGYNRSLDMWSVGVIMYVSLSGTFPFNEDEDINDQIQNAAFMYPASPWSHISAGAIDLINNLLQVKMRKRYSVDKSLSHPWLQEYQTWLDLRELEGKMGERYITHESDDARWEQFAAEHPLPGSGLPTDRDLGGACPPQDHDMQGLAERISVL
In words: Kinase profiling, single-dose in vitro kinase assay (Caliper Life Sciences). As to conditions: read-out: Average % Inhibition PKD2.

The target of the next assay is p38a (Homo sapiens, UniProt Q16539). The description is as above. As to conditions: read-out: Average % Inhibition p38a.
Chain of p38a (Q16539 whole entry): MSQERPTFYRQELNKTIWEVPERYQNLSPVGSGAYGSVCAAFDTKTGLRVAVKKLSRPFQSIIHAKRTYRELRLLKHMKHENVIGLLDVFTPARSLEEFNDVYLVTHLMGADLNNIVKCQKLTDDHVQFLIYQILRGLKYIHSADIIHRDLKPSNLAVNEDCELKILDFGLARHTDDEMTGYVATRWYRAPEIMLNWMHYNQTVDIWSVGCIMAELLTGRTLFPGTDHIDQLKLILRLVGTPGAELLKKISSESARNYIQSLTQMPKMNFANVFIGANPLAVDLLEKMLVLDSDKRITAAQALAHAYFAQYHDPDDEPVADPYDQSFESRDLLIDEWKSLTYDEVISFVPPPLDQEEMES
The target of the next assay is CAMK4 (Homo sapiens, UniProt Q16566). Described as above. As to conditions: read-out: Average % Inhibition CAMK4.
Chain of CAMK4 (Q16566 whole entry): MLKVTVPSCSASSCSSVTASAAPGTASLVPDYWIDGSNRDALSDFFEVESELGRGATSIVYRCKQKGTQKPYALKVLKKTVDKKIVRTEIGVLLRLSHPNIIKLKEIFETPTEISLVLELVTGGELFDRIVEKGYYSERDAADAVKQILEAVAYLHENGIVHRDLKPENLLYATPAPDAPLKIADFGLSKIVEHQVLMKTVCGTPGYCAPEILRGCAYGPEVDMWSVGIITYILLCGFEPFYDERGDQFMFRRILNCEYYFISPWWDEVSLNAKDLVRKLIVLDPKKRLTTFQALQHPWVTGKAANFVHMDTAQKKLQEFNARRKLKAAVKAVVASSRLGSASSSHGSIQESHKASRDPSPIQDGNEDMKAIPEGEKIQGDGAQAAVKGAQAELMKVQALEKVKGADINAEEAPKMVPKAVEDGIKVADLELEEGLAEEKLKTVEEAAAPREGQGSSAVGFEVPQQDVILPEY
The next assay concerns PC3 cells. Further details: method as in PMID 18829454. The following applies: 10 or 25 μM for six days; cited from earlier work.

Chain of RSK1 (Q15418 whole entry): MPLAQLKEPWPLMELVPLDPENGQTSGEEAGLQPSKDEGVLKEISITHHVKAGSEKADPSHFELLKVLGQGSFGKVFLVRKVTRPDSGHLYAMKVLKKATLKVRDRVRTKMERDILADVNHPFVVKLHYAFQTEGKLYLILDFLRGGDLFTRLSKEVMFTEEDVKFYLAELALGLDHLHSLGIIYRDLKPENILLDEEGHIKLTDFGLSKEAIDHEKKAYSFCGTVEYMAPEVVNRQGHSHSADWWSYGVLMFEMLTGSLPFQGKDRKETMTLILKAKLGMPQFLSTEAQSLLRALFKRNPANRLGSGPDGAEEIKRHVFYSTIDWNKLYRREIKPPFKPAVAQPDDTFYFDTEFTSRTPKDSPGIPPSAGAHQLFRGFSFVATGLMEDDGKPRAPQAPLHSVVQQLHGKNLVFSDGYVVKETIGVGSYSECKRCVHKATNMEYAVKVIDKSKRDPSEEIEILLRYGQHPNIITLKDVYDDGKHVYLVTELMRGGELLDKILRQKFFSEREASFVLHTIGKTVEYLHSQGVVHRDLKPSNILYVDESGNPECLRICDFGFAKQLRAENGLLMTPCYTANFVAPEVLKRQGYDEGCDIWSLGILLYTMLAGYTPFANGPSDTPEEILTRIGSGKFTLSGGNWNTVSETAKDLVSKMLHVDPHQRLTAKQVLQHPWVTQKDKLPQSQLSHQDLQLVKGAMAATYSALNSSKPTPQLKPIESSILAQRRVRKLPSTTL

As to `O=C1NCCCc2c1oc1ccc(O)cc21` [CID755673, 7-Hydroxy-2,3,4,5-tetrahydro-[1]benzoxolo[2,3-c]azepin-1-one], the inhibition at 10 µM at PKCθ stood at 32%; on RSK1, 29%; on FGFR1, 16%; on PDGFRα, 5%; on JNK2, 36%; at AKT2, 4%. Besides, the inhibition at 10 µM is 44% on p70S6K; 7% on AurA; -2% at IGF1R; at least 50% at Erk1; -4% at PKCζ; 12% at MARK1. The inhibition at 10 µM came out at 95% at PKD2, 2% on p38a and 17% at CAMK4. Also, in the assay on PLK1, the “inhibition of PLK1” value is given as “did not inhibit”. The “inhibition of CAMKIIα” value on CAMKIIα was “did not inhibit”. In the assay with PC3 cells, the cell cycle arrest entry is “caused G2/M phase cell cycle arrest”.

Broadly, the inhibition is the change of the read-out against control, counted positive when it falls.

The values above are taken from PMC2873968, “Novel protein kinase D inhibitors cause potent arrest in prostate cancer cell growth and motility” (BMC Chemical Biology, 2010).
